Values joined by “and” are separate entries in the source; they are usually repeats but may differ in a detail not shown here. Identical values can stand only once. Counter-ions that a name gives are not always drawn. Like-named read-outs stand apart in the source and are kept apart here.
What was measured:
[1] = test system: LAPC-4 human prostate cancer cells; test: LAPC-4 proliferation assay (CellTiter-Glo), single agents and combination index; assay type: cell-based
Procedure: (§1) Cell lines derived from human prostate cancer metastasis were used (Table 1).
(§2) After one day, the cells were treated with R1881 (10 nM) and 1 nM to 10 μM compounds (day 0). Cell number was determined following addition of CellTiter-Glo® (Promega) at day 0 and day 6. Luminescence was determined in a Victor X3 device (PerkinElmer). The inhibition of cell growth was calculated by normalization with respect to the luminescence reading (cell number) measured at the end of the experiment for cells treated with R1881 alone compared to the fluorescence reading (cell number) measured at the end of the experiment for DMSO-treated cells. […] After one day, the cells were treated with R1881 (0.1 nM) and 1 nM to 10 μM compounds (day 0). Cell number was determined following addition of CellTiter-Glo® (Promega) at day 0 and day 6. Luminescence was determined in a Victor X3 device […]. The inhibition of cell growth was calculated by normalization with respect to the luminescence reading (cell number) measured at the end of the experiment for cells treated with R1881 alone compared to the fluorescence reading (cell number) measured at the start of the experiment for DMSO-treated cells.
(§3) The Combination Index (CI) was determined for the two compound ratios closest to the ratio of the respective IC50 values of each compound alone.

[2] = test system: VCaP human prostate cancer cells; test: VCaP proliferation assay (CellTiter-Glo), single agents and combination index; assay type: cell-based
Procedure: as §1, §2, §3

mTOR = mTOR (Homo sapiens, UniProt P42345); settings: cited from earlier work
PI3K isoforms = settings: cited from earlier work
androgen receptor [3] = target: androgen receptor (Homo sapiens, UniProt P10275); settings: cited from earlier work
Sequence of androgen receptor (Homo sapiens, UniProt P10275) (P10275 whole entry, species assumed): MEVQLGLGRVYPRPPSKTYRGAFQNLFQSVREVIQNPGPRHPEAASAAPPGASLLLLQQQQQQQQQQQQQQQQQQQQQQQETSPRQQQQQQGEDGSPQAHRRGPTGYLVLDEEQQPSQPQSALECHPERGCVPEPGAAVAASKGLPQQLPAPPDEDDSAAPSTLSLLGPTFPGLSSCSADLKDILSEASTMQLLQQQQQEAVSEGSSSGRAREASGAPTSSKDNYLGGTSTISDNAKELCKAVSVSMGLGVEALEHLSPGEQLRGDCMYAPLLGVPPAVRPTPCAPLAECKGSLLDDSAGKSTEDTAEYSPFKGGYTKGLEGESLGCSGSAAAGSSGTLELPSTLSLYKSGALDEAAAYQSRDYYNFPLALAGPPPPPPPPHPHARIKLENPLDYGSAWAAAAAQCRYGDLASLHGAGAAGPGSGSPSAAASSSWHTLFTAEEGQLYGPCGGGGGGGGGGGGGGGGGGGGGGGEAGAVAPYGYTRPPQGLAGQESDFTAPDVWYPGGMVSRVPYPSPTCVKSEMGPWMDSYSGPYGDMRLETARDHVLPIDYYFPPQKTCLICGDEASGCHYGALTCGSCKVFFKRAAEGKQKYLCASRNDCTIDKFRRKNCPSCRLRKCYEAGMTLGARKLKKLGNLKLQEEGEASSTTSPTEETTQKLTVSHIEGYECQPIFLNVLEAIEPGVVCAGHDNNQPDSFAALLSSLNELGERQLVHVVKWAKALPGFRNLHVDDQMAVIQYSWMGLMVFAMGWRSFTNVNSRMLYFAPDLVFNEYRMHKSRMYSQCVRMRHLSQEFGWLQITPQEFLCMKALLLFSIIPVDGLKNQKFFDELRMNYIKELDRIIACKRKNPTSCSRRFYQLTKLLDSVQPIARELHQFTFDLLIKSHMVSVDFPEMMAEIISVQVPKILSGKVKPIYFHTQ

androgen receptor [4] = settings: cited from earlier work
[5] = Homo sapiens, LAPC4, 144 h, LAPC-4 cells, single agent, R1881 10 nM, day 6, read-out: Compound A IC50
[6] = Homo sapiens, VCaP, 144 h, VCaP cells, single agent, R1881 0.1 nM, day 6, read-out: Compound A IC50

## COc1c(OCCCN2CCOCC2)ccc2c1N=C(NC(=O)c1cnc(N)nc1)N1CCN=C21 [Copanlisib, 2-amino-N-[7-methoxy-8-(3-morpholin-4-ylpropoxy)-2,3-dihydroimidazo[1,2-c]quinazolin-5-yl]pyrimidine-5-carboxamide dihydrochloride]
[1]; [5]
  IC50: 41 nM
[1]; LAPC-4 cells, single agent, R1881 10 nM, day 6, dihydrochloride, read-out: Compound A IC50
  IC50: 49 nM
[2]; [6]
  IC50: 9 nM

## Cc1c(CN2CCN(C(=O)[C@H](C)O)CC2)sc2c(N3CCOCC3)nc(-c3cnc(N)nc3)nc12 [Apitolisib]
[1]; [5]
  IC50: 12 nM
[1]; LAPC-4 cells, single agent, R1881 10 nM, day 6, read-out: Compound A IC50
  IC50: 13 nM
mTOR
  activity against mTOR: low nanomolar
[2]; [6]
  IC50: 52 nM
PI3K isoforms
  activity against PI3K isoforms: low nanomolar

## CC(O)c1cc(C(=O)N[C@@H](C)Cn2ccc(-c3ccc(C#N)c(Cl)c3)n2)[nH]n1 (some centres unmarked) [Darolutamide]
[1]; Homo sapiens, LAPC4, 144 h, read-out: Compound B IC50, LAPC-4 cells, single agent, R1881 10 nM, day 6
  IC50: 263 nM
[1]; read-out: Compound B IC50, LAPC-4 cells, single agent, R1881 10 nM, day 6
  IC50: 366 nM
[2]; Homo sapiens, VCaP, 144 h, read-out: Compound B IC50, VCaP cells, single agent, R1881 0.1 nM, day 6
  IC50: 350 nM
[2]; read-out: Compound B IC50, VCaP cells, single agent, R1881 0.1 nM, day 6
  IC50: 417 nM and 557 nM
Androgen receptor [3]
  inhibition of transactivation function: high inhibition
Androgen receptor [4]
  binding affinity for the androgen receptor: low nanomolar

## Cn1c(=O)n(-c2ccc(C(C)(C)C#N)cc2)c2c3cc(-c4cnc5ccccc5c4)ccc3ncc21 [Dactolisib]
mTOR
  activity against mTOR: low nanomolar
[2]; [6]
  IC50: 26 nM
PI3K isoforms
  activity against PI3K isoforms: low nanomolar

Reference: US11185549B2, “Combination of a PI3K-inhibitor with an androgen receptor antagonist” (priority 2017, dated 2021)
